Literature values, collected in patent US20220212015A1, “SURGICAL SYSTEM AND METHODS OF USE” (priority 2021, published 2022).

System: myofibroblast formation
Details: Ajmal et al. (2003)

Q: Which “effect on myofibroblast formation” value does the source give for O=S(=O)([O-])CCS.[Na+] [MESNA, sodium 2-mercaptoethane sulfonate] here?
A: diminish myofibroblast formation
